# System: HCV 1b genotype replicon
# Test: HCV replicon drug screening assay (quantitative RT-PCR or luciferase), genotype 1b
# Format: cell-based
# Conditions: Hepatitis C virus; HCV 1b genotype replicon; quantitative RT-PCR or luciferase assay; read-out: Genotype-1b replicon EC50 Range
# Source text: HCV replicon cell lines (kindly provided by R. Bartenschlager) isolated from colonies as described by Lohman et. al. (Lohman et al. (1999) Science 285: 110-113, expressly incorporated by reference in its entirety) and used for all experiments. The HCV replicon has the nucleic acid sequence set forth in EMBL Accession No.: AJ242651, the coding sequence of which is from nucleotides 1801 to 8406.
# The coding sequence of the published HCV replicon was synthesized and subsequently assembled in a modified plasmid pBR322 (Promega, Madison, Wis.) using standard molecular biology techniques. One replicon cell line (“SGR 11-7”) stably expresses HCV replicon RNA which consists of (i) the HCV 5′UTR fused to the first 12 amino acids of the capsid protein, (ii) the neomycin phosphotransferase gene (neo), (iii) the IRES from encephalomyocarditis virus (EMCV), and (iv) HCV NS2 to NS5B genes and the HCV 3′UTR. Another replicon cell line (“Huh-luc/neo-ET”) described by Vrolijk et. al. (Vrolijk et. al. (2003) Journal of Virological Methods 110:201-209, expressly incorporated by reference in its entirety) stably expresses HCV replicon RNA which consists of (i) the HCV 5′UTR fused to the first 12 amino acids of the capsid protein, (ii) the firefly luciferase reporter gene, (iii) the ubiquitin gene, (iv) the neomycin phosphotransferase gene (neo), (v) the IRES from encephalomyocarditis virus (EMCV), and (vi) HCV NS3 to NS5B genes that harbor cell culture adaptive mutations (E1202G, T12801, K1846T) and the HCV 3′UTR.
# These cell lines are maintained at 37° C., 5% CO2, 100% relative humidity in DMEM (Cat#11965-084, Invitrogen), with 10% fetal calf serum (“FCS”, Invitrogen), 1% non-essential amino acids (Invitrogen), 1% of Glutamax (Invitrogen), 1% of 100× penicillin/streptomycin (Cat#15140-122, Invitrogen) and Geneticin (Cat#10131-027, Invitrogen) at 0.75 mg/ml or 0.5 mg/ml for 11-7 and Huh-luc/neo-ET cells, respectively.
# EC50 values of single agent compounds and combinations were determined by HCV RNA detection using quantitative RT-PCR, according to the manufacturer's instructions, with a TAQMAN® One-Step RT-PCR Master Mix Reagents Kit (Cat#AB 4309169, Applied Biosystems) on an ABI Model 7500 thermocycler. The TaqMan primers to use for detecting and quantifying HCV RNA are 5′-GCTGCGGCCTGTCGAGCT-3′ (SEQ ID NO: 1), 5′-CAAGGTCGTCTCCGCATAC-3′ (SEQ ID NO: 2) and the probe 5′-FAM-[…]-BHQ-3′ (SEQ ID NO: 3) obtained from Integrated DNA Technologies. HCV RNA is normalized to GAPDH RNA levels in drug-treated cells, which is detected and quantified using the Human GAPDH Endogenous Control Mix (Applied Biosystems, AB 4310884E). Total cellular RNA is purified from 96-well plates using the RNAqueous 96 kit (Ambion, Cat#AM1812). Chemical agent cytotoxicity was evaluated using an MTS assay according to the manufacturer's directions (Promega).
# The compounds described herein can be effective against the HCV 1b genotype. It should also be understood that the compounds can inhibit multiple genotypes of HCV. In one embodiment, compounds of Formula (I) are active against the 1a, 1b, 2a, 2b, 3a, 4a, and 5a genotypes. […] The EC50 ranges were classified into the following groups: A>10 nM; B 1-10 nM; C<1 nM. The potential cytotoxicities of each agent were analyzed in parallel by MTS assay and are greater than 3 uM for all agents.
row,SMILES,EC50
1,COC(=O)N[C@H](C(=O)N1CCC[C@H]1c1nc(-c2ccc(CCc3ccc4[nH]c([C@@H]5CCCN5C(=O)[C@@H](NC(=O)OC)C(C)C)nc4c3)cc2)c[nH]1)C(C)C [Compound 71],< 1 nM
2,COC(=O)N[C@H](C(=O)N1CCC[C@H]1c1ncc(-c2ccc([C@H]3C[C@@H]3c3ccc4nc([C@@H]5CCCN5C(=O)[C@@H](NC(=O)OC)C(C)C)[nH]c4c3)cc2)[nH]1)C(C)C [Compound 72],< 1 nM
3,COC(=O)N[C@H](C(=O)N1CCC[C@H]1c1ncc(-c2ccc([C@@H]3C[C@H]3c3ccc4nc([C@@H]5CCCN5C(=O)[C@@H](NC(=O)OC)C(C)C)[nH]c4c3)cc2)[nH]1)C(C)C [Compound 73],< 1 nM
4,COC(=O)N[C@H](C(=O)N1CCC[C@H]1c1ncc(-c2ccc(-c3ccc(-c4ccc5nc([C@@H]6CCCN6C(=O)[C@@H](NC(=O)OC)C(C)C)[nH]c5c4)cc3)cc2)[nH]1)C(C)C [Compound 74],< 1 nM
5,COC(=O)N[C@H](C(=O)N1CCC[C@H]1c1nc(-c2ccc(C#Cc3ccc4[nH]c([C@@H]5CCCN5C(=O)OC(C)(C)C)nc4c3)cc2)c[nH]1)C(C)C [Compound 75],1 to 10 nM
6,COC(=O)N[C@@H](C)C(=O)N1CCC[C@H]1c1nc2cc(C#Cc3ccc(-c4c[nH]c([C@@H]5CCCN5C(=O)[C@@H](NC(=O)OC)C(C)C)n4)cc3)ccc2[nH]1 [Compound 76],< 1 nM
7,CC[C@H](NC(=O)OC)C(=O)N1CCC[C@H]1c1nc2cc(C#Cc3ccc(-c4c[nH]c([C@@H]5CCCN5C(=O)[C@@H](NC(=O)OC)C(C)C)n4)cc3)ccc2[nH]1 [Compound 77],< 1 nM
8,CCC[C@H](NC(=O)OC)C(=O)N1CCC[C@H]1c1nc2cc(C#Cc3ccc(-c4c[nH]c([C@@H]5CCCN5C(=O)[C@@H](NC(=O)OC)C(C)C)n4)cc3)ccc2[nH]1 [Compound 78],< 1 nM
9,COC(=O)N[C@H](C(=O)N1CCC[C@H]1c1nc(-c2ccc(C#Cc3ccc4[nH]c([C@@H]5CCCN5C(=O)[C@H](NC(=O)OC)c5ccccc5)nc4c3)cc2)c[nH]1)C(C)C [Compound 79],< 1 nM
10,COC(=O)N[C@H](C(=O)N1CCC[C@H]1c1nc(-c2ccc(C#Cc3ccc4[nH]c([C@@H]5CCCN5C(=O)[C@@H](NC(=O)OC)[C@@H](C)OC)nc4c3)cc2)c[nH]1)C(C)C [Compound 80],< 1 nM
11,COC(=O)N[C@H](C(=O)N1CCC[C@H]1c1nc(-c2ccc(C#Cc3ccc4[nH]c([C@@H]5CCCN5C(=O)[C@@H](NC(C)=O)C(C)C)nc4c3)cc2)c[nH]1)C(C)C [Compound 81],< 1 nM
12,COC(=O)N[C@H](C(=O)N1CCC[C@H]1c1nc(-c2ccc(C#Cc3ccc4[nH]c([C@@H]5CCCN5C(=O)[C@@H](c5ccccc5)C(C)C)nc4c3)cc2)c[nH]1)C(C)C [Compound 82],< 1 nM
13,COC(=O)N[C@H](C(=O)N1CCC[C@H]1c1nc(-c2ccc(C#Cc3ccc4[nH]c([C@@H]5CCCN5C(=O)[C@H](NC(=O)OC)C(C)C)nc4c3)cc2)c[nH]1)C(C)C [Compound 83],< 1 nM
14,COC(=O)N[C@H](C(=O)N1CCC[C@H]1c1nc2cc(C#Cc3ccc(-c4c[nH]c([C@@H]5CCCN5C(=O)[C@@H](NC(=O)OC)C(C)C)n4)cc3)ccc2[nH]1)c1ccccc1 [Compound 84],< 1 nM
15,COC(=O)N[C@H](C(=O)N1CCC[C@H]1c1nc2cc(C#Cc3ccc(-c4c[nH]c([C@@H]5CCCN5C(=O)OC(C)(C)C)n4)cc3)ccc2[nH]1)C(C)C [Compound 85],< 1 nM
16,COC(=O)N[C@H](C(=O)N1CCC[C@H]1c1nc2cc(C#Cc3ccc(-c4c[nH]c([C@@H]5CCCN5C(=O)[C@@H](NC(C)=O)C(C)C)n4)cc3)ccc2[nH]1)C(C)C [Compound 86],< 1 nM
17,COC(=O)N[C@H](C(=O)N1CCC[C@H]1c1nc2cc(C#Cc3ccc(-c4c[nH]c([C@@H]5CCCN5C(=O)[C@@H](c5ccccc5)C(C)C)n4)cc3)ccc2[nH]1)C(C)C [Compound 87],< 1 nM

row,SMILES,EC50
1,COC(=O)N[C@H](C(=O)N1CCC[C@H]1c1nc2cc(C#Cc3ccc(-c4c[nH]c([C@@H]5CCCN5C(=O)[C@H](NC(=O)OC)C(C)C)n4)cc3)ccc2[nH]1)C(C)C [Compound 88],< 1 nM
2,COC(=O)N[C@H](C(=O)N1CCC[C@H]1c1nc(-c2ccc(C#Cc3ccc4[nH]c([C@@H]5CCCN5C(=O)[C@@H](NC(=O)OC)C(C)C)nc4c3)cc2)c[nH]1)c1ccccc1 [Compound 89],< 1 nM
3,COC(=O)N[C@H](C(=O)N1CCC[C@H]1c1nc(-c2ccc(C#Cc3ccc4[nH]c([C@@H]5C[C@@H](O)CN5C(=O)[C@@H](NC(=O)OC)C(C)C)nc4c3)cc2)c[nH]1)C(C)C [Compound 91],< 1 nM
4,COC(=O)N[C@H](C(=O)N1CCC[C@H]1c1nc(-c2ccc(C#Cc3ccc4[nH]c([C@@H]5CC(F)(F)CN5C(=O)[C@@H](NC(=O)OC)C(C)C)nc4c3)cc2)c[nH]1)C(C)C [Compound 92],< 1 nM
5,COC(=O)N[C@H](C(=O)N1CC2(CC2)C[C@H]1c1nc(-c2ccc(C#Cc3ccc4[nH]c([C@@H]5CCCN5C(=O)[C@@H](NC(=O)OC)C(C)C)nc4c3)cc2)c[nH]1)C(C)C [Compound 94],< 1 nM
6,CC[C@H](C)[C@H](NC(=O)OC)C(=O)N1CCC[C@H]1c1ncc(-c2ccc(C#Cc3ccc4nc([C@@H]5CCCN5C(=O)[C@@H](NC(=O)OC)[C@@H](C)CC)[nH]c4c3)cc2)[nH]1 [Compound 96],< 1 nM
7,COC(=O)N[C@H](C(=O)N1CCC[C@H]1c1ncc(-c2ccc(C#Cc3ccc4nc([C@@H]5CCCN5C(=O)[C@@H](NC(=O)OC)[C@@H](C)O)[nH]c4c3)cc2)[nH]1)[C@@H](C)O [Compound 97],< 1 nM
8,COC(=O)N[C@H](C(=O)N1CCC[C@H]1c1ncc(-c2ccc(C#Cc3ccc4nc([C@@H]5CCCN5C(=O)[C@@H](NC(=O)OC)C5CC5)[nH]c4c3)cc2)[nH]1)C(C)C [Compound 98],< 1 nM
9,COC(=O)N[C@H](C(=O)N1CCC[C@H]1c1ncc(-c2ccc(C#Cc3ccc4nc([C@@H]5CCCN5C(=O)[C@@H](NC(=O)OC)C(C)(C)C)[nH]c4c3)cc2)[nH]1)C(C)C [Compound 99],< 1 nM
10,COC(=O)N[C@H](C(=O)N1CCC[C@H]1c1ncc(-c2ccc(C#Cc3ccc4nc([C@@H]5CCCN5C(=O)[C@@H](NC(=O)OC)C(C)(C)O)[nH]c4c3)cc2)[nH]1)C(C)C [Compound 100],< 1 nM
11,COC(=O)N[C@H](C(=O)N1CCC[C@H]1c1ncc(-c2ccc(C#Cc3ccc4nc([C@@H]5CCCN5C(=O)[C@@H](NC(=O)OC)[C@H](C)O)[nH]c4c3)cc2)[nH]1)C(C)C [Compound 101],< 1 nM
12,CCC(NC(=O)OC)(C(=O)N1CCC[C@H]1c1nc2ccc(C#Cc3ccc(-c4cnc([C@@H]5CCCN5C(=O)[C@@H](NC(=O)OC)C(C)C)[nH]4)cc3)cc2[nH]1)c1ccccc1 (stereo partly drawn) [Compound 102],< 1 nM
13,COC(=O)N[C@@H](C(=O)N1CCC[C@H]1c1nc2ccc(C#Cc3ccc(-c4cnc([C@@H]5CCCN5C(=O)[C@H](NC(=O)OC)c5ccccc5)o4)cc3)cc2[nH]1)c1ccccc1 [Compound 103],< 1 nM
14,COC(=O)N[C@@H](C(=O)N1CCC[C@H]1c1nc2ccc(CCc3ccc(-c4cnc([C@@H]5CCCN5C(=O)[C@H](NC(=O)OC)c5ccccc5)o4)cc3)cc2[nH]1)c1ccccc1 [Compound 104],< 1 nM
15,COC(=O)N[C@H](C(=O)N1C[C@H](O)C[C@H]1c1ncc(-c2ccc(C#Cc3ccc4nc([C@@H]5CCCN5C(=O)[C@@H](NC(=O)OC)C(C)C)[nH]c4c3)cc2)[nH]1)C(C)C [Compound 105],< 1 nM
16,COC(=O)N[C@H](C(=O)N1CCC[C@H]1c1ncc(-c2ccc(C#Cc3ccc4nc([C@@H]5C[C@@H](F)CN5C(=O)[C@@H](NC(=O)OC)C(C)C)[nH]c4c3)cc2)[nH]1)C(C)C [Compound 106],< 1 nM

# — patent US9060971B2, “Combination pharmaceutical agents as inhibitors of HCV replication” (Enanta Pharmaceuticals, Inc., priority 2010, dated 2015)
